The values below come from patent US6639515B2, “Surveillance system for adverse events during drug development studies” (Novo Nordisk A/S, priority 2001, dated 2003).

Molecules are shown by their SMILES.

Series [1] can be described thus: Phase III trials, CUSUM surveillance of prolapses and urinary incontinence. Format: in vivo, women. An excerpt: Phase III consisted of studies including 3000 women. The inclusion criteria were extended so that the women were older than those participating in phase II. Subjects were randomized to take either a placebo or NNC 46-0020 in one of two doses. […] As explained in detail below, this product has motivated the choice of parameters in the examples.
Early in phase III, a number of reports of prolapses and urinary incontinence were received. It was suspected that there were too many cases of prolapses and incontinence. Therefore, it was decided to set up a surveillance program, including expedited reporting of the events even though they are not classified as serious adverse events. Furthermore, investigators were instructed specifically to check for these types of events.
First, it was decided to set up separate programs for prolapses and incontinence, but later the etiology was suspected to be the same and therefore a combined program was used. The incidence of these events is poorly documented in the literature. There are a few reports on the prevalence and based on these, an incidence of 1%/year for each type of adverse event was chosen. This gives an estimated 60 events during the first year of the trial, distributed with 40 in the treatment group, and 20 in the placebo group. An alternative considered was to have a relative risk of 2, corresponding to an expected number of […]. The lower limit c was chosen as 0.
Due to the focus on these events, a number of adverse events were reported each day, and safety committee meetings were held each week. […] At this time, the process had passed not only the limit corresponding to the incidence of 1% of each type of adverse event, but also the limit corresponding to an incidence of 10%. Such “overrunning” seems to be unavoidable for multi-center studies. The distribution 44 to 1 corresponds to a relative risk of 22 for NNC 46-0020. […]

A short description of series [2]: Phase II trials, adverse events. Format: in vivo, women. The source says:
The present invention was used to test a particular drug compound, NNC 46-0020, which was designed to protect healthy women from getting osteoporosis.

Regarding `COc1ccc2c(c1)OC(C)(C)[C@@H](c1ccccc1)[C@@H]2c1ccc(OCCN2CCCC2)cc1` [NNC 46-0020], the “final analysis of risk of prolapses and incontinence” value in series [1] (after termination of the phase III trials, relative risk estimate reduced) is “increased risk of prolapses and incontinence”. Also, in series [1] (phase III, drug (two doses pooled, 2/3 of patients) versus placebo (1/3), at the committee meeting where the alarm limit was passed), the “relative risk of prolapses and incontinence” value turned out to be 22. Moreover, the “distribution of adverse events (prolapses and incontinence), treatment group to placebo group” value in series [1] (phase III, unblinded cases at the committee meeting where the alarm limit was passed) was 44 to 1. Further, the “adverse events in phase II trials” value in series [2] is on record as “without major problems regarding adverse events”.
